# pIC50: −log10 of the molar value. Activity calls are given as the source filed them. No rule for the calls is given here.
# Experiment: H9c2 cardiomyoblast viability modulators under 2-DG – cell-based, ATPlite luminescence, rat, set 2, myocardial damage modulator project, dose response (AID 602210)
# Details: H9c2 rat cardiomyoblasts, 2-deoxyglucose-induced death, 2 h
SMILES,IC50,pIC50
N#C/C(=C\c1ccc(-c2cccc([N+](=O)[O-])c2)o1)C(=O)NCCN1CCOCC1,> 79 µM (inactive),
COC(=O)c1cc2ccccn2c2c(C(=O)OC)c(C(=O)OC)cc1-2,,5.28
COc1cc(-c2cc3nc(NCCc4ccc(S(N)(=O)=O)cc4)ccn3n2)cc(OC)c1OC,15.6 µM (inactive),
CCOC(=O)c1c(C)[nH]c(C)c1C(=O)COc1ncnc2cc([N+](=O)[O-])ccc12,19.8 µM (inactive),
O=C(CSc1nnc(Cc2cccs2)n1CCc1ccccc1)N1CCCc2ccccc21,13.9 µM (inactive),
Brc1ccc(-c2nn3c(-c4ccccn4)nnc3s2)o1,42.3 µM (inactive),
Cc1ccc(-c2csc(N3CCC[C@@H]3C(=O)NCCn3c(-c4ccncc4)nc4ccccc43)n2)cc1,,5.05
COc1ccc2c(c1OC)c(=O)n1c3ccc(OC(C)C(=O)NCCN4CCOCC4)cc3c3ccnc2c31 (stereo unspecified),46.6 µM (inactive),
CCCn1nc(C(=O)Nc2nc(-c3ccccn3)cs2)c2ccccc2c1=O,,5.04
COc1cc(OC)cc(-c2cc3nc(C)c(CCC(=O)Nc4nc(C)cs4)c(C)n3n2)c1,,5.20
O=C(Nc1ccccc1)c1nc[nH]c1C(=O)NCCCCNC(=O)c1[nH]cnc1C(=O)Nc1ccccc1,,5.39
Cc1ccc2nc(-c3ccccc3)cc(C(=O)NNC(=O)c3csc(N4CCOCC4)n3)c2c1,12.4 µM (inactive),
COc1ccc(-c2ccc3c(c2)S(=O)(=O)c2cccc(C(=O)N4CCN(c5c(Cl)cncc5Cl)CC4)c2C3=O)cc1OC,,5.08
Cc1ccc(S(=O)(=O)N2CCN(C(=O)c3cc(=O)[nH]c4ccccc34)CC2)c(C)c1,23 µM (inactive),
COc1cc(/C=N/NC(=O)NC23CC4CC(CC(C4)C2)C3)ccc1OCC(N)=O,,5.11
COc1cccc(-c2nn(-c3ccccc3)cc2C(=O)Nc2nccs2)c1,16.3 µM (inactive),
O=C(c1cc(=O)[nH]c2ccccc12)N1CCN(S(=O)(=O)c2ccc3ccccc3c2)CC1,17.4 µM (inactive),
COc1ccc(CSc2nc3ccccc3c(=O)[nH]2)cc1F,> 79 µM (inactive),

SMILES,IC50,pIC50
C=CC[C@@H](CC(=O)NCCO)C(=O)NC[C@H](OC(=O)[C@@H](CC=C)Cc1ccc(F)cc1)c1ccccc1,11.9 µM (inactive),
CC(=O)c1cccc(-c2cnc3c(NC=O)cc(-c4ccccc4F)cn23)c1,17.9 µM (inactive),
COc1ccccc1NC(=O)c1cc(-c2ccc(OC)c(OC)c2)nc2ccccc12,,5.13
CC(C)(C)NC(=O)COC(=O)c1c2c(nc3ccccc13)CCC2,16.7 µM (inactive),
COc1ccc(Nc2nnc(SCc3cc(=O)n4ccsc4n3)s2)cc1,21.7 µM (inactive),
O=C(COC(=O)c1c2c(nc3ccccc13)/C(=C/c1cccc([N+](=O)[O-])c1)CCC2)NC1CCS(=O)(=O)C1 (stereo unspecified),12.9 µM (inactive),
O=C(Nc1cccc(/C=C/c2ccccn2)c1)c1ccc(-n2cncn2)cc1,> 79 µM (inactive),
Cc1ccc(-c2nn3c(-c4ccco4)nnc3c3ccccc23)cc1S(=O)(=O)NCC1CCCO1 (stereo unspecified),27.1 µM (inactive),
COc1cccc(Nc2nc3ccccc3n3cnnc23)c1,17.5 µM (inactive),
CSc1nc2ccc(S(=O)(=O)Nc3c(C)n(C)n(-c4ccccc4)c3=O)cc2s1,,5.05
Cc1ccc(-n2cc(-c3ccccc3)c3c(N4CCOCC4)ncnc32)cc1,,5.08
Cn1c(=O)[nH]c(=O)c2c1nc(Br)n2CC(O)COc1ccc(Cl)cc1 (stereo unspecified),22.8 µM (inactive),
Cc1nn2c(-c3cccc(NC(=O)c4ccco4)c3)nnc2c2ccccc12,,5.11
O=C(N/N=C/c1ccc2c(c1)OCO2)c1ccc(NC(=O)c2ccccc2Cl)cc1,14.8 µM (inactive),
Cn1nc(C(=O)Nc2nc(-c3ccccn3)cs2)c2ccccc2c1=O,> 79 µM (inactive),
COc1ccc(-c2cc(C(F)(F)F)n3nc(C(=O)N4CCN(C(=O)c5ccco5)CC4)cc3n2)cc1,,5.42
O=c1cc(-c2cccnc2)oc2c1ccc1ccccc12,16.4 µM (inactive),
COc1ccc(C(=O)COC(=O)C(CCCCN2C(=O)C3C4C=CC(C4)C3C2=O)N2C(=O)C3C4C=CC(C4)C3C2=O)cc1 (stereo unspecified),11.8 µM (inactive),

# Reference: PubChem BioAssay AID602210 (Sanford-Burnham Center for Chemical Genomics, 2012)
